According to US10435439B2, “Peptide with safer secondary structure, peptide library, and production methods for same” (The University of Tokyo, priority 2010, dated 2019):
pKd: −log10 of the molar value. *1 amine or outer side, *2 acyl side, *3 side chain or, on linkers, in order; H or OH if unused. Where a SMILES comes first, the peptide text is derived from it. Bridges are numbered along the chain shown (N, C = ends). [ ]: non-standard residue; d: D form. Nle(4-yne,6-yl) = O=C([C@H](CC#CC[*:3])N[*:1])[*:2]

Target: Bcl-2 protein having His tag on the C terminal side (Homo sapiens, UniProt P10415)
Test: Binding ability to Bcl-2 by SPR (Surface Plasmon Resonance), dissociation constant
Conditions: His-tagged Bcl-2 immobilized on Ni substrate, solid-phase synthesized peptide, KD from binding and dissociation rates
Procedure: Next, a crosslinked peptide having the amino acid sequence as shown in the above table was synthesized by using a Fmoc solid-phase method and its binding ability was evaluated by calculating a dissociation constant (KD) in accordance with an evaluation method using SPR (Surface Plasmon Resonance).
Described specifically, first, a solution containing NiCl2 was applied on a substrate to which Ni could be bound and then Bcl-2 protein having His tag on the C terminal side thereof was applied to immobilize the protein on the substrate. Then, a solution containing a solid-phase synthesized peptide was added successively while appropriately changing the concentration. During addition, a change in refractive index depending on the weight on the substrate was read and bond strength was evaluated based on the binding rate and dissociation rate of the peptide calculated.

Bcl-2 protein having His tag on the C terminal side, sequence (P10415 whole entry): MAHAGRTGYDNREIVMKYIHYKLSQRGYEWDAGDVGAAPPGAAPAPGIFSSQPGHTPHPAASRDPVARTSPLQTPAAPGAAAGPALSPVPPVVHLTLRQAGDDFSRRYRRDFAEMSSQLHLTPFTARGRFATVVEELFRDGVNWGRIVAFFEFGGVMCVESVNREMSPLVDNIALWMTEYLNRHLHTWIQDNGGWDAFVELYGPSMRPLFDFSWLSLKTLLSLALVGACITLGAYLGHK

`CC(=O)N[C@@H](Cc1ccccc1)C(=O)N[C@@H](Cc1ccccc1)C(=O)N[C@@H](CC(N)=O)C(=O)N[C@@H](CCCNC(=N)N)C(=O)N[C@@H](Cc1c[nH]cn1)C(=O)N[C@@H](CC(N)=O)C(=O)N[C@@H](CC(N)=O)C(=O)N[C@@H](C)C(=O)N[C@@H](Cc1ccc(O)cc1)C(=O)N[C@@H](Cc1ccc(O)cc1)C(=O)N[C@H](C(=O)N[C@H]1CC#CCSC[C@@H](C(=O)N[C@@H](CC(C)C)C(=O)NCC(=O)N[C@@H](CCCNC(=N)N)C(=O)N[C@@H](CC(C)C)C(=O)N[C@@H](Cc2ccc(O)cc2)C(=O)N[C@@H](CCCNC(=N)N)C(=O)N[C@@H](CC(C)C)C(=O)N[C@@H](CC(C)C)C(N)=O)NC(=O)[C@H](C)NC(=O)[C@H](Cc2ccc(O)cc2)NC(=O)CNC1=O)[C@@H](C)O` [A-4] (Ac-FFNRHNNAYYT[Nle(4-yne,6-yl)]GYACLGRLYRLL-NH2; thioether 12-16) and `CC(=O)N[C@@H](Cc1ccccc1)C(=O)N[C@@H](CC(C)C)C(=O)N[C@@H](CC(N)=O)C(=O)N[C@@H](CCCNC(=N)N)C(=O)N[C@@H](Cc1c[nH]cn1)C(=O)N[C@@H](CC(N)=O)C(=O)N[C@@H](CC(N)=O)C(=O)N[C@@H](C)C(=O)N[C@@H](Cc1ccc(O)cc1)C(=O)N[C@@H](Cc1ccc(O)cc1)C(=O)N[C@H](C(=O)N[C@H]1CC#CCSC[C@@H](C(=O)N[C@@H](CC(C)C)C(=O)NCC(=O)N[C@@H](CCCNC(=N)N)C(=O)N[C@@H](CC(C)C)C(=O)N[C@@H](Cc2ccc(O)cc2)C(=O)N[C@@H](CCCNC(=N)N)C(=O)N[C@@H](CC(C)C)C(=O)N[C@@H](CC(C)C)C(N)=O)NC(=O)[C@H](C)NC(=O)[C@H](Cc2ccc(O)cc2)NC(=O)CNC1=O)[C@@H](C)O` [A-3] (Ac-FLNRHNNAYYT[Nle(4-yne,6-yl)]GYACLGRLYRLL-NH2; thioether 12-16) cannot be ordered by pKd: < 10.00 for the first, < 10.00 for the second.

Going from `CC[C@H](C)[C@@H]1NC(=O)[C@H]([C@@H](C)O)NC(=O)[C@@H](NC(=O)[C@H](Cc2c[nH]cn2)NC(=O)[C@@H]2CCCN2C(=O)[C@H](Cc2ccccc2)NC(C)=O)CC#CCSC[C@@H](C(=O)N[C@@H](CCCNC(=N)N)C(=O)N[C@@H](C)C(=O)N[C@@H](CC(=O)O)C(=O)N[C@@H](CO)C(=O)N[C@@H](Cc2ccc(O)cc2)C(=O)N[C@@H](CC(=O)O)C(=O)N[C@@H](CO)C(=O)N[C@@H](Cc2ccc(O)cc2)C(=O)N[C@H](C(=O)N[C@@H](CCCNC(=N)N)C(=O)N[C@@H](CC(C)C)C(=O)N[C@@H](C)C(=O)N[C@@H](C)C(=O)N[C@H](C(=O)N[C@@H](Cc2ccccc2)C(=O)N[C@@H](CC(C)C)C(N)=O)[C@@H](C)O)C(C)C)NC(=O)[C@H](C)NC1=O` [A-1] (Ac-FPH[Nle(4-yne,6-yl)]TIACRADSYDSYVRLAATFL-NH2; thioether 4-8) to `CC[C@H](C)[C@H](NC(=O)[C@H](Cc1c[nH]cn1)NC(=O)[C@H](CCCNC(=N)N)NC(=O)[C@H](CO)NC(=O)[C@H](C)NC(=O)[C@H](CC(=O)O)NC(=O)[C@H](Cc1ccc(O)cc1)NC(=O)[C@H](CO)NC(=O)[C@H](CC(=O)O)NC(=O)[C@H](C)NC(=O)[C@H](CC(C)C)NC(=O)[C@@H]1CSCC#CC[C@H](NC(=O)[C@@H](NC(=O)[C@@H](NC(=O)[C@H](Cc2ccccc2)NC(C)=O)[C@@H](C)CC)[C@@H](C)CC)C(=O)N[C@@H](CCCNC(=N)N)C(=O)N[C@@H](Cc2ccccc2)C(=O)N[C@@H](CO)C(=O)N1)C(=O)N[C@@H](Cc1ccccc1)C(N)=O` [A-5] (Ac-FII[Nle(4-yne,6-yl)]RFSCLADSYDASRHIF-NH2; thioether 4-8), the pKd rises from 9.43 to 9.77 (0.34 log units). The second binds more tightly here.
